In article PMC8042770, “Odorant Receptors for Detecting Flowering Plant Cues Are Functionally Conserved across Moths and Butterflies” (Molecular Biology and Evolution, 2020):
Read-outs that look alike come from different tables or passages of the source.

Columns and labels:
[1] = target: HarmOR52 (Helicoverpa armigera, UniProt A0A7T3KAH2); experiment: Xenopus oocyte two-electrode voltage clamp, HarmOR52 + Orco; assay type: cell-based
Experimental: (§1) In order to expand our analysis on the response properties of HarmORs, we conducted dose–response analyses for the 28 functional HarmORs. […] Six HarmORs (OR3, 22, 48, 50, 56, and 66) could not be activated by any ligand at 10^−5 M. For the other 22 HarmORs, dose–response curves were generated and EC50 values of their major ligands were calculated (fig. 2A and supplementary table S2, Supplementary Material online). The HarmOR repertoire was highly efficient in terpene detection, since the lowest EC50 values were obtained for such compounds. Many of these terpenes have been proposed to be defensive chemicals of plants. […] DMNT is also one of the oviposition deterring compounds found in larval frass of some Lepidoptera species such as S. littoralis ([Anderson et al. 1993]).
(§2) Functional characterization of individual ORs was performed by heterologous expression in Xenopus oocytes combined with a two-electrode voltage-clamp system ([Wang et al. 2010]). Briefly, the full-length gene of each OR and Orco were subcloned into the eukaryotic expression vector pT7TS. cRNAs were generated from linearized expression vectors using the mMESSAGE mMACHINE T7 kit (Ambion, Austin, TX). Then, the cRNA mixture of ORx and Orco (27.6 ng each) was injected (Nanoliter 2010, WPI Inc., Sarasota, FL) into oocytes (stage V–VII). The respective Orcos of different species were used for functional studies of OR42 orthologs except for the four butterfly species (V. tameamea, P. xuthus, D. plexippus, and P. rapae), in which we used the Orco from P. xuthus. After incubation in nutrient solution at 18 °C for 3–5 days, the response profile of each oocyte to multiple plant odorants was recorded via a two-electrode voltage clamp (OC-725C oocyte clamp, Warner Instruments, Hamden, CT) at a holding potential of −80 mV. Data were acquired by using a Digidata 1440 A and were analyzed by pCLAMP 10.2 software (Axon Instruments Inc., Union City, CA).
(§3) Stock solutions of each odorant were prepared at 1 M using DMSO as a solvent, and each odorant was diluted in 1× Ringer’s solution to the indicated concentrations for electrophysiological recording. For functional screening of each HarmOR, a panel of 67 odorants belonging to three types of chemical classes: terpenes, aromatics, and aliphatics (short-chain fatty acid) were used (supplementary table S1, Supplementary Material online). For functional studies of OR42 orthologs from different species, six odorants including PAA, benzaldehyde, (E)-2-hexen-1-al, cinnamaldehyde, 2-phenylethanol, and heptanal were used.

[2] = target: HarmOR59 (Helicoverpa armigera, UniProt A0A7T3KAU6); experiment: Xenopus oocyte two-electrode voltage clamp, HarmOR59 + Orco; assay type: cell-based
Experimental: as §1, §2, §3

[3] = target: T1, HarmOR40 (Helicoverpa armigera, UniProt A0A7T3KBF4); experiment: Xenopus oocyte two-electrode voltage clamp, HarmOR40 + Orco; assay type: cell-based
T1 sequence (A0A7T3KBF4 1-401): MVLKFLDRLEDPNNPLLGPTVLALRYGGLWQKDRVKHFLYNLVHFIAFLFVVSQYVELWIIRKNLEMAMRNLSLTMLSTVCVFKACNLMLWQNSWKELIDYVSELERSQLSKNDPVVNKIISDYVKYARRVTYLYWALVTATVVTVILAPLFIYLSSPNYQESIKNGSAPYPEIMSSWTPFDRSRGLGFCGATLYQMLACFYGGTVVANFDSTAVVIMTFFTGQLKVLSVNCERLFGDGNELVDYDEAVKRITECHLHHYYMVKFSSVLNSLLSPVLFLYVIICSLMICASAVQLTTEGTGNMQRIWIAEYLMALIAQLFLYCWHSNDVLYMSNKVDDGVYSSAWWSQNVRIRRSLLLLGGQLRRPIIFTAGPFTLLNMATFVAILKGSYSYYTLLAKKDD
Experimental: as §1, §2, §3

[4] = target: HarmOR12 (Helicoverpa armigera, UniProt A0A172QGF5); experiment: Xenopus oocyte two-electrode voltage clamp, HarmOR12 + Orco; assay type: cell-based
Source text: (§4) In order to expand our analysis on the response properties of HarmORs, we conducted dose–response analyses for the 28 functional HarmORs. […] Many of these terpenes have been proposed to be defensive chemicals of plants.
(§5) Briefly, the full-length gene of each OR and Orco were subcloned into the eukaryotic expression vector pT7TS. cRNAs were generated from linearized expression vectors using the mMESSAGE mMACHINE T7 kit (Ambion, Austin, TX). […] The respective Orcos of different species were used for functional studies of OR42 orthologs except for the four butterfly species (V. tameamea, P. xuthus, D. plexippus, and P. rapae), in which we used the Orco from P. xuthus.
as §3

[5] = target: HarmOR31 (Helicoverpa armigera, UniProt A0A7T3N2E9); experiment: Xenopus oocyte two-electrode voltage clamp, HarmOR31 + Orco; assay type: cell-based; conditions: HarmOR31; dose response in oocytes; unit M; read-out: EC50
Source text: as §4, §5, §3

[6] = target: T2, HarmOR60 (Helicoverpa armigera, UniProt A0A7T3N1B9); experiment: Xenopus oocyte two-electrode voltage clamp, HarmOR60 + Orco; assay type: cell-based; conditions: HarmOR60; dose response in oocytes; unit M
T2 sequence (A0A7T3N1B9 1-391): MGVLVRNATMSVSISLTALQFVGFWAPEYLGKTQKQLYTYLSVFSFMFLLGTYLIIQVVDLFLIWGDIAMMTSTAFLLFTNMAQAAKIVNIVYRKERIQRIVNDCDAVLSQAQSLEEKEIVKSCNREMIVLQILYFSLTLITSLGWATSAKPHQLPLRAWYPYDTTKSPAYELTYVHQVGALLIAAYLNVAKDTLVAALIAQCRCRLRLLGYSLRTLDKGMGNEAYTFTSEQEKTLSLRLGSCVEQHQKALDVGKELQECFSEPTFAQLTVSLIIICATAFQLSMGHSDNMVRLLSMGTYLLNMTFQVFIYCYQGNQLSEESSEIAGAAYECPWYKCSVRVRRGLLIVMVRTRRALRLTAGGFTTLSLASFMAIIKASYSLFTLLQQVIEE
Experimental: as §1
as §2, with “CA). […]” for “CA).”

[7] = target: T3, HarmOR27 (Helicoverpa armigera, UniProt A0A7T3KAG1); experiment: Xenopus oocyte two-electrode voltage clamp, HarmOR27 + Orco; assay type: cell-based; conditions: HarmOR27; dose response in oocytes; unit M; read-out: EC50
T3 sequence (A0A7T3KAG1 1-426): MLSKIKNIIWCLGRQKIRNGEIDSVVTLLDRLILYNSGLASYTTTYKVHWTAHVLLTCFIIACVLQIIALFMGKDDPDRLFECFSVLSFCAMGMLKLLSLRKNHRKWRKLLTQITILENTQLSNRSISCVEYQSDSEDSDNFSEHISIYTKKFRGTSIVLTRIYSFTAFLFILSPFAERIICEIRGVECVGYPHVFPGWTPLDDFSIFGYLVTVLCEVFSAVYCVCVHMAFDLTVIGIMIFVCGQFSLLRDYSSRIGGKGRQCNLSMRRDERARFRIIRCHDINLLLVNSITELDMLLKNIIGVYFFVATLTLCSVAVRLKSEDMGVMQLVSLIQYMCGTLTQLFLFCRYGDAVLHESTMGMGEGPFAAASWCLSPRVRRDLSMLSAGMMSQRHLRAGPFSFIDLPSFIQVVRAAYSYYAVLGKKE
Experimental: as §1, §2, §3

[8] = target: HarmOR36 (Helicoverpa armigera, UniProt A0A7T3N0K7); experiment: Xenopus oocyte two-electrode voltage clamp, HarmOR36 + Orco; assay type: cell-based; conditions: HarmOR36; dose response in oocytes; unit M; read-out: EC50
Experimental: as §1, §2, §3

[9] = tested on: H. armigera moth antennae; experiment: Electroantennography (EAG), wild-type vs HarmOR42 knock-out moths; assay type: in vivo, Helicoverpa armigera; conditions: single odorants, 1 μg
Source text: We next conducted a loss-of-function study by generating a HarmOR42-lacking H. armigera strain by CRISPR/Cas9 targeting the first coding exon. Homozygous mutants were obtained with a large segment deletion of 203 bp and a 6-bp nonhomologous insertion in the genome (fig. 6B), introducing a premature stop codon in the coding sequence. […] The most likely hypothesis is that HarmOR42 is not the major receptor for sensing this compound in H. armigera. As a control, we tested the response of male moths to the sex pheromone component Z11-16: Ald that is not a ligand of HarmOR42. As expected, we observed no difference between the EAG responses of mutant and wild-type moths to this compound.
The antennae of 2- to 3-day-old virgin male and female moths were cut at the base of the flagellum. After removing the tip, one antenna was inserted between two glass electrodes filled with 0.1 M KCl solution. In each test, a 10-μl solution of each odorant was added onto a piece of filter paper (0.5 cm × 0.5 cm) and then inserted into a Pasteur pipette. About 100 ng/μl stock solutions of individual odorants and different doses of the mixture IAC were prepared with paraffin oil. A continuous airflow of 30 ml/s was produced by a stimulus controller (CS-55, Syntech, Kirchzarten, Germany). Odor stimulation was controlled by a puff of purified air (0.2 s at 10 ml/s airflow) from the CS-55. EAG signals were amplified with a 10× AC/DC headstage preamplifier (Syntech) and further acquired with an Intelligent Data Acquisition Controller (IDAC-4-USB, Syntech) ([Cao et al. 2016]). The signals were recorded, monitored, and analyzed using Syntech EAG-software (Syntech, Germany). The EAG response values for each compound were calculated by subtracting the value of the same antennae corresponding to a solvent blank of paraffin oil.

[10] = target: HarmOR42 (Helicoverpa armigera, UniProt A0A7T3KAF6); experiment: Xenopus oocyte two-electrode voltage clamp, HarmOR42 + Orco; assay type: cell-based; conditions: 67 odorants at 10^−4 M
Source text: In preliminary screening, we used a high dosage (10^−4 M) of odorants. […] Most functional ORs responded robustly to multiple odorants. The strongest response (up to ∼6,000 nanoampere, nA) we detected was that of HarmOR42 toward the aromatic compound PAA. Further, the response profiles of the 28 HarmORs appeared to be highly differentiated, with no apparent overlap in their tuning spectra (with the exception of HarmOR12 and 36) according to functional cluster analysis (fig. 1A).
as §1, §2, §3

[11] = target: HarmOR23 (Helicoverpa armigera, UniProt A0A7T3KAE3); experiment: Xenopus oocyte two-electrode voltage clamp, HarmOR23 + Orco; assay type: cell-based; conditions: dose response in oocytes, unit M printed in text only
Experimental: as §1
as §2, with “CA). […]” for “CA).”

HarmOR59, sequence (A0A7T3KAU6 entry or part of it): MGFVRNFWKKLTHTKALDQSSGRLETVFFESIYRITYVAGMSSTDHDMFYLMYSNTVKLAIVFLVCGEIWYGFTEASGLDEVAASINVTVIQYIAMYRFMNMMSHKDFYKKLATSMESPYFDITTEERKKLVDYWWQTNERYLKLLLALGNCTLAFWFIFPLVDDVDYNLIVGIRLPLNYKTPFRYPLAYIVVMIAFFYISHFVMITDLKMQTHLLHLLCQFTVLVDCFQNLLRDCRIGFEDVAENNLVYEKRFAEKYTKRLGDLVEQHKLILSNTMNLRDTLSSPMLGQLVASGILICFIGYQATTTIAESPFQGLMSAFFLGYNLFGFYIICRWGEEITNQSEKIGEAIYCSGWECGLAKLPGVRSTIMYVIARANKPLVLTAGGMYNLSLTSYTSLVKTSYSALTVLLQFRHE
HarmOR23, sequence (A0A7T3KAE3 entry or part of it): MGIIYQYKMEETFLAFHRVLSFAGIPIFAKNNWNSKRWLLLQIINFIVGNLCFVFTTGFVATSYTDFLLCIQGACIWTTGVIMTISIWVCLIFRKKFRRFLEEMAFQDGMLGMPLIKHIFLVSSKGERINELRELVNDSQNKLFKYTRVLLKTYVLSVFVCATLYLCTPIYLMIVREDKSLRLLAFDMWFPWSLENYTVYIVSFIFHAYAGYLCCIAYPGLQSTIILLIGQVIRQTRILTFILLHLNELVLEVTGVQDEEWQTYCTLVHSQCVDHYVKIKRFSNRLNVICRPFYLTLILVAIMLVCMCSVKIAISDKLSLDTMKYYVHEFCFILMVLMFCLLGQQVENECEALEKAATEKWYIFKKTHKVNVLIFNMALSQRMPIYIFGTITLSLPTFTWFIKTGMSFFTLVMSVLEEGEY
HarmOR52, sequence (A0A7T3KAH2 entry or part of it): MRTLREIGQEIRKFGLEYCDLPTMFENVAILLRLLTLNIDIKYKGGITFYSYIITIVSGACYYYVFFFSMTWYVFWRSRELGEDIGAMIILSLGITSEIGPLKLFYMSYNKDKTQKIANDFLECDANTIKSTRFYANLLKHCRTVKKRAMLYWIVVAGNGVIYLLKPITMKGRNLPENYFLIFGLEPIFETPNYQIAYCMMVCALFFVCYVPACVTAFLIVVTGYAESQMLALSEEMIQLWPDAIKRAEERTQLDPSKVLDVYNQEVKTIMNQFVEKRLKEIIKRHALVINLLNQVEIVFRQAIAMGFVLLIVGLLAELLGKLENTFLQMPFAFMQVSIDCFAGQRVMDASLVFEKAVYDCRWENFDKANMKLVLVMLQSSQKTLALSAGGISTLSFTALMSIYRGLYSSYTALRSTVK
HarmOR36, sequence (A0A7T3N0K7 entry or part of it): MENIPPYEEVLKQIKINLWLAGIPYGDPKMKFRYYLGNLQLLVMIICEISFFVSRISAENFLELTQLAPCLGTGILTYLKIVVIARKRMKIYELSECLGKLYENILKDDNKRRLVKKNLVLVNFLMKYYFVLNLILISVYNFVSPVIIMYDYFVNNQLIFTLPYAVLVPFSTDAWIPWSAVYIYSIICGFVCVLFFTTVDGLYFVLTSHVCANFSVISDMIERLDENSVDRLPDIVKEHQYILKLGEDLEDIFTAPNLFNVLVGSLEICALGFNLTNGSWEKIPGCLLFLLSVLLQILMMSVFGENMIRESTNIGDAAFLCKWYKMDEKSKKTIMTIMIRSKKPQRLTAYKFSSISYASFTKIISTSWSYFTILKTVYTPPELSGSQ
HarmOR31, sequence (A0A7T3N2E9 entry or part of it): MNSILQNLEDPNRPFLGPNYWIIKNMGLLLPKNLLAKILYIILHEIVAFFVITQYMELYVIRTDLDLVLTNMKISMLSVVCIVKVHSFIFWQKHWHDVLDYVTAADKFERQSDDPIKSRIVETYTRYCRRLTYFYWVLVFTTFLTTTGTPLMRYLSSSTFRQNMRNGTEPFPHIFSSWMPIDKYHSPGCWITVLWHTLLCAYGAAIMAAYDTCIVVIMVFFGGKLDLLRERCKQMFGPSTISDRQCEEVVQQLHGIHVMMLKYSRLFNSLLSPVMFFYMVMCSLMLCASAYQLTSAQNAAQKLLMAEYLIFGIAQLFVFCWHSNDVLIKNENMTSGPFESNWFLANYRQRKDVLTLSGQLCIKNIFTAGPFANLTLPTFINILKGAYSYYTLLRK
HarmOR12, sequence (A0A172QGF5 entry or part of it): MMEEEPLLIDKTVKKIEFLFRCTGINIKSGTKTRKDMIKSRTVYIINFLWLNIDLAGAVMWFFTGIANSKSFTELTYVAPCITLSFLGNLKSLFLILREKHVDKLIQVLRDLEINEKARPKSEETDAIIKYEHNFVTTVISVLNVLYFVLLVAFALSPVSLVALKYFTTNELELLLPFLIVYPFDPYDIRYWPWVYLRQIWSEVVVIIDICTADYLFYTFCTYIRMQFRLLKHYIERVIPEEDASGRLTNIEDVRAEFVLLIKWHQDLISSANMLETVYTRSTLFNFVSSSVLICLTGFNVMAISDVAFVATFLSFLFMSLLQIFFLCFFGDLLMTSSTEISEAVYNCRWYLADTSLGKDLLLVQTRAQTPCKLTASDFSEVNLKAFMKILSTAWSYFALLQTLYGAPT
HarmOR42, sequence (A0A7T3KAF6 entry or part of it): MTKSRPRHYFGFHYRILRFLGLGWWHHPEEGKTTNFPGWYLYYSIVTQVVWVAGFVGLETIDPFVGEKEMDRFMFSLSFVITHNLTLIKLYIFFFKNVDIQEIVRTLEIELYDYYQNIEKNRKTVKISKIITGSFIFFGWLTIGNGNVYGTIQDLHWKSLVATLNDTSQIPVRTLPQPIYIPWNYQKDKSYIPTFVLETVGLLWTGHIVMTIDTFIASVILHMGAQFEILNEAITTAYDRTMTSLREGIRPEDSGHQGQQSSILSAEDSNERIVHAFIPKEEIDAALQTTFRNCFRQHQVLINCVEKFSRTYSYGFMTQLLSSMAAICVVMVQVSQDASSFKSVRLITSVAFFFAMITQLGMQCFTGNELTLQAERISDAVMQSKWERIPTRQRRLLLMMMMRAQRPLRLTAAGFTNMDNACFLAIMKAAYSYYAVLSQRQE

Q: Which EC50 [1] does the source give for OCc1ccccc1 [Benzyl alcohol] here?
A: 6.87 µM

Q: How did the EC50 [2] turn out when CCC/C=C/C=O [(E)-2-Hexen-1-al] was run?
A: 3780 µM

Q: Which results are given for CC(C)=CCC/C(C)=C/CO [Geraniol]?
A: EC50 [3]: 27.8 µM; EC50 [4]: 27.6 µM

Q: With CC/C=C\CCOC(C)=O [(Z)-3-Hexenyl acetate] as the compound, how does the EC50 [5] read?
A: 7.51 µM

Q: With C[C@@H]1CC[C@H]2C(C)(C)[C@H]3C[C@@]12CC[C@@]3(C)O [Cedrol] as the compound, how does the EC50 [6] read?
A: 8.6 µM

Q: With CC/C=C\CC1=C(C)CCC1=O [cis-Jasmone] as the compound, how does the EC50 [7] read?
A: 78.6 µM

Q: For CC/C=C\CCO [(Z)-3-hexen-1-ol], which EC50 [2] is on record?
A: 1860 µM

Q: What about the EC50 [1] of the same compound?
A: 23.3 µM

Q: CCc1ccc(C=O)cc1 [4-Ethylbenzaldehyde] was tested. Which EC50 ([2]; HarmOR59, dose response in oocytes, unit M, read-out: EC50) did it give?
A: 1190 µM

Q: CCC(C)(O)CCCC(C)C (centres unmarked) [3,7-Dimethyl-3-octanol] was tested. Which EC50 [8] did it give?
A: 2.91 µM

Q: What does the source list for CCCC/C=C\CCCCCCCCCC=O [Z11-16: Ald]?
A: EAG response of HarmOR42 knock-out mutants compared with wild-type moths [9]: no difference; ligand tuning of HarmOR42 [10]: not a ligand

Q: Which EC50 ([3]; HarmOR40, dose response in oocytes, unit M printed in text only, listed as farnesene, read-out: EC50) does the source give for Farnesene here?
A: < 10 µM

Q: What about the EC50 ([3]; HarmOR40, dose response in oocytes, unit M printed in text only, read-out: EC50) of the same compound?
A: 7.9 µM

Q: What about the EC50 [11] of the same compound?
A: 4.79 µM

Q: What about the EC50 ([11]; listed as farnesene) of the same compound?
A: < 10 µM
